The values that follow are results of earlier work, collected in patent US7196180B2, “Functionalized derivatives of hyaluronic acid, formation of hydrogels in situ using same, and methods for making and using same” (Orthogene LLC, priority 1998, dated 2007).

With `NCCCCN` [putrescine], the pKa (in general, the negative logarithm of the acid dissociation constant) is reported as above 9.
